These results are taken from patent US20090317444A1, “PROCESS FOR CELL PROLIFERATION” (BIOBERICA, S.A., priority 2006, published 2009).

Entries after “also recorded” stand apart in the source; their conditions may differ.

In assay [1] the test system is chondrocytes of bovine origin. In words: Proliferation of chondrocytes measured through DNA levels (alginate beads). It counts as cell-based. The conditions noted are these: 10 days culture in alginate beads; for increase in DNA levels relative to the control (without compound): 10 mM; for effect on DNA levels per alginate bead (in words): 1, 5 and 10 mM, FIG. 1. As for the experimental part: Chondrocytes of bovine origin were isolated using digestion with collagenase following a previously described process (B. Beekman et al., Exp. Cell Res., 237, 135-141 (1997)).
The isolated bovine chondrocytes were cultured following a methodology described in the literature (J. DeGroot, et al., 266, 303-310 (2001)). The chondrocytes were transferred to an alginate support matrix, forming alginate beads which contain the cells at a concentration of 2.5×10^6 cells/ml, and DMEM (Dulbecco's Modified Eagle's Medium) with Glutamax was added to them supplemented with ascorbic acid, penicillin, streptomycin and FCS (foetal cow serum). After 24 hours, the medium was renewed and the chondrocytes contained in alginate beads (5 beads/well, with 250 μl of medium/well, in plates of 48 wells) were cultured in the absence (control) or presence of the compound to test (at concentrations of 1, 5 and 10 mM). The medium was regenerated twice a week. At the end of 10 days, the beads were collected (5 beads in each well, n=3 wells per condition) and they were stored at a temperature of −20° C. until making the analysis.
To quantify DNA levels, the beads were digested with papain and Hoechst 33258 (bisbenzimide) dye was used. DNA levels per alginate bead were determined.
(§1) The evaluation of the differences between all compounds and the control condition was assayed using analysis of variance (ANOVA). Then, the LSD test was performed to determine the difference between each compound and the control condition. They were considered statistically significant when p≦0.05.

In assay [2] the test system is chondrocytes of bovine origin. The assay is described as follows: Release of glycosaminoglycans from the chondrocytes in alginate beads after stimulation with IL-1β. Format: cell-based. To be noted: IL-1β 20 ng/ml, 48 hours; for effect on release of GAGs by the chondrocytes (in words): 10 mM, FIG. 2. The protocol: Chondrocytes of bovine origin were cultured for 21 days in alginate beads as support matrix; approximately 100 beads in 75 cm^2 culture dishes in 25 ml of medium, without adding the compounds to be tested. The medium was regenerated twice a week. After 21 days of culture, the beads were transferred to 48-well plates, 5 beads per well, 250 μl of medium per well. The compounds to be tested were added on day 21 (mannosamine hydrochloride, glucosamine hydrochloride and N-acetylglucosamine) to evaluate the effect on the degradation of the extracellular matrix after stimulation with IL-1β (20 ng/ml). Each compound was tested at concentrations of 1 and 10 mM. In each experiment each concentration was tested at n=3 wells, except in the control (n=8 wells). Once the alginate beads have been incubated with IL-1β (20 ng/ml) and the compounds during 48 hours, the culture medium was collected (day 21 to day 23). The GAGs content in the beads and in the culture medium on day 23 was measured (release of GAGs mediated by aggrecanase). The GAGs content was determined, after digestion with papain, with the Blyscan™ assay (kit) from Biocolor Ltd.
The results were expressed as a percentage of released GAGs with respect to total GAGs.
as §1

For a further assay, the system named is bovine chondrocytes. The assay is described as follows: Glycosaminoglycan content per chondrocyte (GAG with respect to DNA). Format: cell-based. The conditions noted are these: for effect on GAGs levels per chondrocyte (in words): 5 and 10 mM, FIG. 4. As for the experimental part: Bovine chondrocytes were used as starting point and the same methodology was followed as in Example 1 (chondrocyte proliferation measured through DNA levels), but in this case each compound was tested at two concentrations (5 and 10 mM).
The GAG content was determined, after digestion with papain, with the Blyscan™ assay (kit) from Biocolor Ltd.
as §1

Assay [3] relates to metalloprotease activity (MMP) of the chondrocytes. The assay is described as follows: Metalloprotease activity of the chondrocytes in alginate beads after stimulation with IL-1β and activation with APMA. To be noted: IL-1β 20 ng/ml, 1 mM APMA. Format: cell-based, bovine. The protocol:
Bovine chondrocytes were used as starting point and the methodology of the Example 2 was followed, but in this case each compound was tested at two concentrations (5 and 10 mM).
The chondrocytes were cultured for 21 days in alginate to produce extracellular matrix. After 2 days of stimulation with IL-1β and with or without compounds, the medium was renewed. The metalloprotease activity was then determined in the culture medium after 2 hours of incubation with 20 ng/ml of IL-1β, 1 mM of APMA and with or without the compounds. The metalloprotease activity was quantified using the substrate for metalloproteases TNO 211-F (I. Tchetverikov et al., Clin. Exp. Rheumatol. 21, 711-8 (2003)).
as §1

Take `Cl.N[C@H]1C(O)O[C@H](CO)[C@@H](O)[C@@H]1O` (stereo partly shown) [glucosamine hydrochloride, reference compound]: in assay [1], the “increase in DNA levels relative to the control (without compound)” value is listed as 4 times and the “effect on DNA levels per alginate bead (in words)” value is recorded as “dose-dependent increase in DNA levels”. Also, the “effect on release of GAGs by the chondrocytes (in words)” value in assay [2] is “reduced the release of GAGs”.

Take `CC(=O)N[C@H]1C(O)O[C@H](CO)[C@@H](O)[C@@H]1O` (stereo partly shown) [N-acetylglucosamine, reference compound]: in assay [1], the “effect on DNA levels per alginate bead (in words)” value was “No significant effect”. The “effect on GAGs levels per chondrocyte (in words)” value with bovine chondrocytes is reported as “No significant effect”.

For `CC(=O)N[C@@H]1C(O)O[C@H](CO)[C@@H](O)[C@@H]1O` (stereo partly shown) [N-acetylmannosamine], the “increase of GAG content per chondrocyte with respect to the control (culture without product)” value in the assay on bovine chondrocytes (10 mM) was 63%. For the same compound, the “effect on GAGs levels per chondrocyte (in words)” value with bovine chondrocytes is “dose-dependent increase in GAGs levels per chondrocyte”.

As to `Cl.N[C@@H]1C(O)O[C@H](CO)[C@@H](O)[C@@H]1O` (stereo partly shown) [mannosamine hydrochloride], the “increase in DNA levels relative to the control (without compound)” value in assay [1] worked out at 10 times. Further, the “effect on DNA levels per alginate bead (in words)” value in assay [1] (hydrochloride) was “highest levels of DNA/bead; also recorded: dose-dependent increase in DNA levels”. For the same compound, the “effect on release of GAGs by the chondrocytes (in words)” value in assay [2] is given as “reduced the release of GAGs”. The “reduction of the release of GAGs with respect to the control (culture without compound)” value in assay [2] (upper concentration (10 mM)) is recorded as 30%. The “reduction in metalloprotease activity with respect to the control” value in assay [3] (10 mM) came to 30%. The “effect on metalloprotease activity (in words)” value in assay [3] (5 and 10 mM, FIG. 3) is recorded as “the only one which reduced metalloprotease activity”.
